Measured values as given in patent US20160000762A1, “IMPROVING COGNITIVE FUNCTION” (THE REGENTS OF THE UNIVERSITY OF CALIFORNIA, priority 2013, published 2016).

What was measured:
soluble Aβ 40 = test: Aβ ELISA, 3× Tg AD mice; format: in vivo; conditions: 30 mg/kg daily, 2 weeks
Description: Aβ ELISA. Mouse brains were homogenized in tissue homogenization buffer containing 250 mM sucrose, 20 mM Tris base, protease, and phosphatase inhibitors. To measure soluble Aβ, DEA extraction was performed. Crude 10% homogenate was mixed with an equal volume of 0.4% diethylamine (DEA), sonicated, and ultracentrifuged for 1 hr at 100,000×g. The supernatant was collected and neutralized with 10% 0.5 M Tris, pH 6.8. Sensitive and specific ELISAs to rodent Aβ1-40 was purchased from IBL Transatlantic (Toronto, Canada) and conducted per the manufacturer's protocol.

Ras = test: GST-Raf1-RBD pulldown of active Ras, primary cortical neurons; format: cell-based; conditions: 5 μM
Description: GST-pull-down assay. To measure levels of active Ras, brain lysate homogenized with Ral buffer (25 mM Tris-HCl, pH 7.4, 250 mM NaCl, 0.5% NP40, 1.25 mM MgCl2, and 5% glycerol) from APP transgenic, APP knockout, or wild-type mice was incubated with GST-Raf-RBD purified protein coupled with GLUTATHIONE SEPHAROSE™ (Amersham) overnight at 4° C. After 24 hours, pellets were washed with Ral buffer and western blotting was conducted with anti-Ras.
We next investigated the molecular mechanism by which BTA-EG4 may alter dendritic spine formation. Ras, a small GTPase, is involved in dendritic spine formation and synaptic delivery of AMPA receptors (Zhu et al., 2002; Lee et al., 2011). Moreover, abnormal Ras signaling is associated with neurodegenerative disease, causing cognitive impairments and learning deficits (Stornetta and Zhu, 2011). Thus, we initially investigated the effect of BTA-EG4 on Ras signaling by treating primary hippocampal neurons with BTA-EG4 (5 μM) or control for 24 hrs. […] Further, levels of active Ras were elevated following BTA-EG4 treatment (5 μM) in primary cortical neurons (FIG. 7C) and following BTA-EG4 treatment (30 mg/kg) in wild-type mice (FIG. 7D). We also examined whether BTA-EG4 can alter the activity of downstream Ras signaling proteins, including p-ERK and p-CREB.

[1] = Morris Water Maze, 3× Tg AD mice; format: in vivo; conditions: for escape latency during training trials: 30 mg/kg daily, 2 weeks
Description: Morris Water Maze. To examine the effects of BTA-EG4 on learning and memory, we injected 2-3 month old, 6-10 month old, and 13-16 month old 3× Tg AD mice daily (i.p.) for 2 weeks before beginning behavioral testing as described previously (Minami et al., 2012). The control groupw as treated with vehicle solution (10% DMSO) while the experimental group was treated with BTA-EG4 (30 mg/kg) daily for 2 weeks. Animals were kept on a fixed 12 hour light-dark cycle, and behavioral experiments were conducted during the light portion of this cycle. Specifically, experiments began at 9:30 AM and concluded before 4:00 PM. Briefly, the amount of time required for animals to locate a Plexiglas platform submerged in opaque water was measured in a large circular pool. The animal was randomly placed into one of four quadrants separated by 90°, and the platform was hidden in one of these quadrants (14 in. from the wall). TOPSCAN software tracked the time required (latency, limited to 60 s) to locate the hidden platform, and animals failing to locate the platform within 60 s were gently guided to the platform. On the first trial, animals were allowed to remain on the platform for 15 s. All subsequent trials limited platform time to 10 s, and a probe trial (60 s) was administered 24 h after the final learning trial. Time spent in the quadrant where the platform was previously located and number of platform crossings were recorded during this probe trial. As a control, 12 h after the last trial, animals were required to locate a clearly visible black platform placed in a new location.

Substance: BTA-EG4
- soluble Aβ 40 levels (soluble Aβ 40; 2-3 months): decrease
- soluble Aβ 40 level (soluble Aβ 40; 6-10 months): without changes
- soluble Aβ 40 level (soluble Aβ 40; 13-16 months): none of the measured parameters were significantly altered
- levels of active Ras (Ras): elevated
- swim speed ([1]; 2-3 months): without differing
- escape latency during training trials ([1]; 2-3 months): significantly faster
- percentage of time in the target quadrant ([1]; 2-3 months, probe trials): greater percentage
- platform crossings ([1]; 2-3 months, probe trials): more platform crossings
- escape latency during training trials ([1]; 6-10 months): faster
- number of platform crossings ([1]; 6-10 months, probe trials): without changes
- percentage of time spent in the target quadrant ([1]; 6-10 months, probe trials): significantly improved
- measured Morris Water Maze parameters (escape latency, swim speed, target quadrant time, platform crossings) ([1]; 13-16 months): none of the measured parameters were significantly altered
